Source: patent US20260200939A1, “MOLECULAR GLUE DEGRADER COMPOUNDS AND USES THEREOF” (Novartis AG, priority 2022, published 2026)

Key:
BRD4 long = biological target: T1, BRD4 long (Homo sapiens, UniProt O60885); test: BRD4 (long) degradation assay, Western blotting; assay type: cell-based; conditions: HEK293T cells
T1 construct: endogenous in cells; host or cells: HEK293T
Summary of the method: (§1)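 Cell lines were grown at 37° C with 5% CO2 (HEK293T and C33A in DMEM, A549 in F-12K, 22RV1, LNCaP and Mino in RPMI-1640, K562 and MV-4-11 in IMDM, all with 10% FBS). Lysates were BCA-normalized, then SDS/PAGE Western blots were probed with target-specific antibodies and read by IR680/IR800 fluorescent secondaries on Li-Cor.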

BRD4 short = biological target: T2, BRD4 short (Homo sapiens, UniProt O60885); test: BRD4 (short) degradation assay, Western blotting; assay type: cell-based; conditions: HEK293T cells
T2 construct: endogenous in cells; host or cells: HEK293T
Summary of the method: as §1

Recombinant RNF126 = biological target: T3, Recombinant RNF126 (Homo sapiens, UniProt Q9BV68); test: RNF126 Binding Assay, gel-based ABPP
T3 construct: FLAG (C); host or cells: HEK293T
Summary of the method: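 FLAG-tagged human RNF126, expressed in HEK293T and purified on anti-FLAG resin, was pretreated with DMSO or covalent ligand for 30 min at 37 °C in PBS. IA-rhodamine was then added for 1 h at RT in the dark. Probe labelling was read by SDS-PAGE in-gel fluorescence.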

HEK293T cells = test: Quantitative TMT proteomic profiling in HEK293T cells; assay type: cell-based
Method: Cells were treated with either DMSO vehicle or compound (Compound 130, 1 μM) for 24 h and lysate was prepared as described above. Briefly, 25-100 μg protein from each sample was reduced, alkylated and tryptically digested overnight. Individual samples were then labeled with isobaric tags using commercially available TMTsixplex (Thermo Fisher Scientific, P/N 90061) kits, in accordance with the manufacturer's protocols. Tagged samples (20 μg per sample) were combined, dried with SpeedVac, resuspended with 300 μL 0.1% TFA in H2O, and fractionated using high pH reversed-phase peptide fractionation kits (Thermo Scientific, P/N 84868) according to manufacturer's protocol. Fractions were dried with SpeedVac, resuspended with 50 μL 0.1% FA in H2O, and analyzed by LC-MS/MS as described below.
Quantitative TMT-based proteomic analysis was performed as previously described using a Thermo Eclipse with FAIMS LC-MS/MS (King, E. A. et al. Chemoproteomics-Enabled Discovery of a Covalent Molecular Glue Degrader Targeting NF-κB. 2022.05.18.492542 Preprint at https://doi.org/10.1101/2022.05.18.492542 (2022)). […] Only peptide-to-spectrum matches that are unique assignments to a given identified protein within the total dataset are considered for protein quantitation. […]

BTK = biological target: T4, BTK (Homo sapiens, UniProt Q06187); test: BTK degradation in MINO lymphoma cancer cells, Western blotting; assay type: cell-based
T4 construct: endogenous in cells; host or cells: Mino
Method: C33A cells were purchased from American Type Culture Collection (ATCC) and were cultured in Dulbecco's Modified Eagle Medium (DMEM) containing 10% (v/v) fetal bovine serum (FBS) and maintained at 37° C. with 5% CO2. 22RV1 cells were purchased from the ATCC and were cultured in RPMI-1640 Medium containing 10% (v/v) FBS and maintained at 37° C. with 5% CO2. HEK293T cells were obtained from the UC Berkeley Cell Culture Facility and were cultured in DMEM containing 10% (v/v) FBS and maintained at 37° C. with 5% CO2. K562 cells were obtained from the UC Berkeley Cell Culture Facility and were cultured in Iscove's Modified Dulbecco's Medium (IMDM) containing 10% (v/v) FBS and maintained at 37° C. with 5% CO2. MV-4-11 cells were obtained from the ATCC and were cultured in IMDM containing 10% (v/v) FBS and maintained at 37° C. with 5% CO2. A549 cells were obtained from the ATCC and were cultured in F-12K Medium containing 10% (v/v) FBS and maintained at 37° C. with 5% CO2. Mino cells were obtained from the ATCC and were cultured in RPMI-1640 Medium containing 10% (v/v) FBS and maintained at 37° C. with 5% CO2. […]
Cells were washed twice with cold PBS, scraped, and pelleted by centrifugation (700 g, 5 min, 4° C.). […] Proteome concentrations were determined using BCA assay and lysate was diluted to appropriate working concentrations. […]

T3 sequence (Q9BV68 whole entry): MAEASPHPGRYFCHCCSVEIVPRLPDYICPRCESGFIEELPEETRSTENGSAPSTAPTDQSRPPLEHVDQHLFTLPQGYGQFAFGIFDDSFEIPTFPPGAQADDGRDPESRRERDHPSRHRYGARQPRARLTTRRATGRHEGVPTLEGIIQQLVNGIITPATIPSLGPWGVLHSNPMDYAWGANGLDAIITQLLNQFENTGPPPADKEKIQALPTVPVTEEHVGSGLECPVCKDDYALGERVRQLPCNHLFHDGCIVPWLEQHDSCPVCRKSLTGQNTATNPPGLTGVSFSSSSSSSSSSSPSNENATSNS
T4 sequence (Q06187 whole entry): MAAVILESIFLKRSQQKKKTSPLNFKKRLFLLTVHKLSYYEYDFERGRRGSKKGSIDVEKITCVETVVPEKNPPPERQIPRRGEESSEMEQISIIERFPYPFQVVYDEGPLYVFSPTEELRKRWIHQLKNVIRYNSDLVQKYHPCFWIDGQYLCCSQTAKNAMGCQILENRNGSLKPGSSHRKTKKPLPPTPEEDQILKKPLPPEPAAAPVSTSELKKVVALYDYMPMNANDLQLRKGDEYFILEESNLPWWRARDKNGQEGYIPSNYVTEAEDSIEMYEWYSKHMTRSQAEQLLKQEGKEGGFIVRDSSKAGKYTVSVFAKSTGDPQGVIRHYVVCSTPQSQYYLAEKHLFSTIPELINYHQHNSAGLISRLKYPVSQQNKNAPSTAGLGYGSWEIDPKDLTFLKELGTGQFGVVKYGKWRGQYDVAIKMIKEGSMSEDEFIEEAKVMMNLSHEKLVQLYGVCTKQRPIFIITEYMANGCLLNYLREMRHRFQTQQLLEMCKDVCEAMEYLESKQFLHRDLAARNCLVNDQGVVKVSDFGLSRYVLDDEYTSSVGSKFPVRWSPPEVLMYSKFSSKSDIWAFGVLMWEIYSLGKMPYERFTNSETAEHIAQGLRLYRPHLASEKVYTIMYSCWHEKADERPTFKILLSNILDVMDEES

Compound	degradation of BRD4 long isoform, in words (BRD4 long)	degradation of BRD4 short isoform, in words (BRD4 short)	binding to RNF126 (gel-based ABPP), in words (Recombinant RNF126)	selectivity of degradation by quantitative proteomic profiling (HEK293T cells)	degradation of BTK, in words (BTK)
COc1ccc(C(=O)/C=C/C(=O)N2CCN(C(=O)C[C@@H]3N=C(c4ccc(Cl)cc4)c4c(sc(C)c4C)-n4c(C)nnc43)CC2)cc1 [Compound 130, (S,E)-1-(4-(2-(4-(4-chlorophenyl)-2,3,9-trimethyl-6H-thieno[3,2-f][1,2,4]triazolo[4,3-a][1,4]diazepin-6-yl)acetyl)piperazin-1-yl)-4-(4-methoxyphenyl)but-2-ene-1,4-dione]	degradation of both the long and short isoforms of BRD4 in HEK293T cells in a dose-responsive, time-dependent, and proteasome-dependent manner	degradation of both the long and short isoforms of BRD4 in HEK293T cells in a dose-responsive, time-dependent, and proteasome-dependent manner	potent binding	relatively selective degradation of BRD4	
COc1ccc(C(=O)/C=C/C(=O)N2CCC[C@@H](n3nc(-c4ccc(Oc5ccccc5)cc4)c4c(N)ncnc43)C2)cc1 [Compound 131]			potent binding		degradation of BTK in MINO lymphoma cancer cells
